Laboratory results reported in patent US11306073B2, “N-acylurea derivative and composition comprising same for prevention or treatment of cardiovascular disease” (KOREA UNIVERSITY RESEARCH AND BUSINESS FOUNDATION, priority 2016, dated 2022).

Assays:
[1] = test system: CHO/αIIbβ3 cell line; test: Screening of talin antagonist candidates: binding of CHO/αIIbβ3 cells to fibrinogen-coated plate (CCK-8 readout); format: cell-based; conditions: 0.2 mM of candidate; compared to a negative control; FIG. 2; read-out: inhibition of the binding between the CHO/αIIbβ3 cell line and fibrinogen
Description: Cells expressing platelet integrin αIIbβ3 were incubated with 0.2 mM of candidates, and the binding between the cells and fibrinogen was verified according to the experimental method shown in FIG. 1. In FIG. 2, 0% is a negative control and represents the degree to which cells adhere to a surface coated with bovine serum albumin (BSA) instead of fibrinogen, and 100% is a positive control and represents the degree to which cells adhere to fibrinogen in the absence of any candidate. The ability of candidates to inhibit fibrinogen binding was normalized to 100%, and the mean and standard error of three experiments are graphically shown.
Platelets bind to fibrinogen present in blood and produce thrombi. This binding is mediated by integrin αIIbβ3 present in the platelet cell membrane, and this integrin binds to fibrinogen after being activated by talin. In order to enable high-throughput efficacy testing by simplifying this procedure into a cell line-based experiment, integrin αIIbβ3 was first stably expressed in the CHO cell line using lentivirus, thereby constructing a CHO/αIIbβ3 cell line. The constructed cell line was cultured in a fibrinogen-coated 96-well plate for 1 hour and washed, after which the amount of remaining cells was measured to evaluate the efficacy of a talin antagonist candidate. In this procedure, in order to measure the relative amount of the CHO/αIIbβ3 cell line remaining in the well due to binding to fibrinogen, a cell counting kit-8 (CCK-8) was used to measure the activity of dehydrogenase present in the remaining cells. When the activity of dehydrogenase appeared due to the presence of the cells, the color of CCK-8 changed from yellow to orange (FIG. 1). To measure the degree to which the color changed to orange, the absorbance at a wavelength of 450 nm was measured with a plate reader. This enabled easy, fast and reliable high-throughput screening.
To screen talin antagonist candidates, inhibition of the binding affinity between the CHO/αIIbβ3 cell line and fibrinogen was examined by the above-described efficacy testing method.
As a result, it was shown that compounds, including KCH-1420, KCH-1424, KCH-1510, KCH-1511, KCH-1512, KCH-1513, KCH-1516, KCH-1518, KCH-1521, KCH-1523, KCH-1526, KCH-1529, KCH-1530, and KCH-1542 inhibited the binding between the CHO/αIIbβ3 cell line and fibrinogen by at least 80% compared to a negative control (FIG. 2). […] In FIG. 3, like FIG. 2, cells expressing platelet integrin αIIbβ3 were incubated with varying concentrations of a candidate, and the binding between the cells and fibrinogen was examined. Cell adhesion on the Y-axis is the relative degree of cell-fibrinogen binding.

[2] = target: T1, talin protein (6×His-tagged F2F3 protein) (Homo sapiens, UniProt Q9Y490); test: Binding affinity between talin protein and candidate by surface plasmon resonance; conditions: SPR, talin F2F3 immobilized on sensor chip; FIG. 4; read-out: affinity constant
T1 construct: 6×His-tagged F2F3 protein containing F3 was isolated and purified; 6×His; made in house
T1 sequence (Q9Y490 196-405 limits assumed): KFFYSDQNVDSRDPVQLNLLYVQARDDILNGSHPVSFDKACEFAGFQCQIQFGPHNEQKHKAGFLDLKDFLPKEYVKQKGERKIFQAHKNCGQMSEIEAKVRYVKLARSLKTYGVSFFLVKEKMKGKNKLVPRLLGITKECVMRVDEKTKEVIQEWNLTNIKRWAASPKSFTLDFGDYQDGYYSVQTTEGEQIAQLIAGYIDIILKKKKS
Description: To measure the binding affinity between the talin protein and a talin antagonist candidate, surface plasmon resonance spectroscopy was used. Specifically, a talin antagonist candidate was added to the talin protein immobilized on a sensor chip, and the affinity constant between the two substances was measured by surface plasmon resonance (hereinafter referred to as ‘SPR’) spectrometry.
Talin is divided into an N-terminal head domain and a C-terminal rod domain, and the head domain is further divided into four subdomains, F0, F1, F2 and F3. Among them, F3 is known as an integrin binding site. Thus, 6×His-tagged F2F3 protein containing F3 was isolated and purified. As a sensor chip for immobilizing the talin protein, HTEPBE10PO1 (Biorad) was used. SPR was measured using ProteON™ XPR36 (Biorad).

[3] = test system: mouse blood platelets; test: Platelet aggregation inhibitory effect using mouse platelets activated by thrombin; format: cell-based; conditions: 0.2 mM compound, FIG. 5
Description: It is well known that platelets bind to fibrinogen in blood and form thrombi, which leads to the contraction of intracellular skeletal muscle due to signaling after the binding between activated integrin a αIIbβ3 and fibrinogen. To achieve this thrombus formation in vitro, mouse blood platelets were isolated and thrombin known as a platelet activator was added thereto. As a result, as shown in the left photograph of FIG. 5, the platelets were aggregated. However, when platelets were treated with thrombin in combination with KCH-1513 or KCH-1521, it was observed that platelet aggregation that was increased by thrombin decreased when 0.2 mM of KCH-1513 (middle photograph) or the same concentration of KCH-1521 (right photograph) was added.

Cc1cccc(OCC(=O)NC(=O)Nc2ccccc2F)c1C [KCH-1420, 2-(2,3-dimethylphenoxy)-N-((2-fluorophenyl)carbamoyl)acetamide]
inhibition at 200 µM [1]: ≥ 80%

CC(C)(C)OC(=O)N1CCN(CC(=O)NC(=O)Nc2ccccc2F)CC1 [KCH-1424, tert-butyl 4-(2-(3-(2-fluorophenyl)ureido)-2-oxoethyl)piperazine-1-carboxylate]
inhibition at 200 µM [1]: ≥ 80%

COc1cc(NC(=O)NC(=O)Cn2nnc(-c3ccccc3)n2)ccc1Br [KCH-1510, N-((4-bromo-3-methoxyphenyl)carbamoyl)-2-(5-phenyl-2H-tetrazol-2-yl)acetamide]
inhibition at 200 µM [1]: ≥ 80%

O=C(Cn1nnc(-c2ccccc2)n1)NC(=O)Nc1ccc(Oc2ccccc2)cc1 [KCH-1511, N-((4-phenoxyphenyl)carbamoyl)-2-(5-phenyl-2H-tetrazol-2-yl)acetamide]
inhibition at 200 µM [1]: ≥ 80%

COc1ccc(CNC(=O)NC(=O)Cn2nnc(-c3ccccc3)n2)cc1 [KCH-1512, N-((4-methoxybenzyl)carbamoyl)-2-(5-phenyl-2H-tetrazol-2-yl)acetamide]
inhibition at 200 µM [1]: ≥ 80%

O=C(Cn1nnc(-c2ccccc2)n1)NC(=O)NCCC1=CNC2C=CC=CC12 (stereo not drawn) [KCH-1513, N-((2-(3a,7a-dihydro-1H-indol-3-yl)ethyl)carbamoyl)-2-(5-phenyl-2H-tetrazol-2-yl)acetamide]
inhibition at 200 µM [1]: ≥ 80%
Kd [2]: 9.33 mM
inhibition of thrombin-induced platelet aggregation [3]: significantly inhibit platelet aggregation

O=C(Cn1nnc(-c2ccccc2)n1)NC(=O)Nc1ccccc1F [KCH-1516, N-((2-fluorophenyl)carbamoyl)-2-(5-phenyl-2H-tetrazol-2-yl)acetamide]
inhibition at 200 µM [1]: ≥ 80%

COc1cc(NC(=O)NC(=O)COc2ccc3c(c2)OCO3)ccc1Br [KCH-1518, 2-(benzo[d][1,3]dioxo1-5-yloxy)-N-((4-bromo-3-methoxyphenyl)carbamoyl) acetamide]
inhibition at 200 µM [1]: ≥ 80%

O=C(COc1ccc2c(c1)OCO2)NC(=O)NCCc1c[nH]c2ccccc12 [KCH-1521]
inhibition at 200 µM [1]: ≥ 80%
Kd [2]: 0.271 mM
inhibition of thrombin-induced platelet aggregation [3]: significantly inhibit platelet aggregation

O=C(COc1ccc2c(c1)OCO2)NC(=O)Nc1ccc(OCc2ccccc2)cc1 [KCH-1523, 2-(benzo[d][1,3]dioxol-5-yloxy)-N-((4-(benzyloxy)phenyl)carbamoyl) acetamide]
inhibition at 200 µM [1]: ≥ 80%

COc1cc(NC(=O)NC(=O)COc2ccccc2OC)ccc1Br [KCH-1526, N-((4-bromo-3-methoxyphenyl)carbamoyl)-2-(2-methoxyphenoxy)acetamide]
inhibition at 200 µM [1]: ≥ 80%

COc1ccccc1OCC(=O)NC(=O)NCCc1c[nH]c2ccccc12 [KCH-1529, N-((2-(1H-indol-3-yl)ethyl)carbamoyl)-2-(2-methoxyphenoxy)acetamide]
inhibition at 200 µM [1]: ≥ 80%

COc1ccc(NC(=O)NC(=O)COc2ccccc2OC)c(OC)c1 [KCH-1530, N-((2,4-dimethoxyphenyl)carbamoyl)-2-(2-methoxyphenoxy)acetamide]
inhibition at 200 µM [1]: ≥ 80%

COc1ccc(NC(=O)NC(=O)COc2cccc(Br)c2)c(OC)c1 [KCH-1542, 2-(3-bromophenoxy)-N-((2,4-dimethoxyphenyl)carbamoyl)acetamide]
inhibition at 200 µM [1]: ≥ 80%
